Results on six compounds are retold here after ChEMBL document CHEMBL5352452, “Design, synthesis and pharmacological evaluation of β-carboline derivatives as potential antitumor agent via targeting autophagy” (Eur J Med Chem, 2023).

The structures appear in SMILES notation. A value given as a limit tells only on which side of the number the result lay.

Common to all, as to assay type: functional, cell-based
One experiment relates to A-375. Description: Antiproliferative activity against human A-375 cells assessed as inhibition of cell growth measured after 48 hrs by MTT assay. The conditions noted are these: A-375, 48 h.
A further experiment has as its system 786-0. Kind of experiment: Antiproliferative activity against human 786-0 cells assessed as inhibition of cell growth measured after 48 hrs by MTT assay. The settings on record: 786-0, 48 h.
The next experiment relates to CWR22R. Description: Antiproliferative activity against human 22Rv1 cells assessed as inhibition of cell growth measured after 48 hrs by MTT assay. The conditions noted are these: 22Rv1, 48 h.
A further experiment has as its system ECa-109 cell line. Description: Antiproliferative activity against human Eca-109 cells assessed as inhibition of cell growth measured after 48 hrs by MTT assay. The settings on record: ECa-109, 48 h.
A further experiment relates to KB. Description: Antiproliferative activity against human KB cells assessed as inhibition of cell growth measured after 48 hrs by MTT assay.
For the next experiment, the system named is MCF7. Kind of experiment: Antiproliferative activity against human MCF7 cells assessed as inhibition of cell growth measured after 48 hrs by MTT assay. The conditions noted are these: MCF7, 48 h.
Another experiment concerns BGC-823. Kind of experiment: Antiproliferative activity against human BGC-823 cells assessed as inhibition of cell growth measured after 48 hrs by MTT assay. The settings on record: BGC-823, 48 h.
The next experiment concerns HT-29. Description: Antiproliferative activity against human HT-29 cells assessed as inhibition of cell growth measured after 48 hrs by MTT assay. The settings on record: HT-29, 48 h.
The subject of another experiment is SK-OV-3. Kind of experiment: Antiproliferative activity against human SK-OV-3 cells assessed as inhibition of cell growth measured after 48 hrs by MTT assay. The settings on record: SK-OV-3, 48 h.
A short description of experiment [1]: Antiproliferative activity against human BIU-87 cells assessed as inhibition of cell growth measured after 48 hrs by MTT assay. The settings on record: BIU87, 48 h.

For the compound `CN1CCN(Cc2cc3c4ccccc4n(C)c3c(CN3CCN(C)CC3)n2)CC1`, the IC50 is 85.9 µM with A-375; 13400 nM in the experiment with 786-0; greater than 100 µM in the experiment on CWR22R; greater than 100 µM in the experiment with ECa-109 cell line; greater than 100 µM in the experiment on KB; greater than 100 µM in the experiment with MCF7. Also, the concentration for half-maximal inhibition (IC50) with BGC-823 is greater than 100 µM; in the experiment on HT-29 it was 46.8 µM; in the experiment with SK-OV-3 it was 93.5 µM; in experiment [1] it was greater than 100 µM.
With `CCCCn1c2ccccc2c2cc(CN3CCN(C)CC3)nc(CN3CCN(C)CC3)c21`, the IC50 in the experiment with A-375 was determined as 17.2 µM; with 786-0, 2320 nM; in the experiment on CWR22R, 4.63 µM; in the experiment on ECa-109 cell line, 25.6 µM; in the experiment with KB, 34.8 µM; in the experiment on MCF7, 50.2 µM. In addition, the IC50 in the experiment on BGC-823 stood at 98.5 µM; in the experiment with HT-29, 11 µM; with SK-OV-3, 27.3 µM; in experiment [1], 23.9 µM.
Turning to `CN1CCN(Cc2cc3c4ccccc4n(Cc4ccccc4)c3c(CN3CCN(C)CC3)n2)CC1`, the IC50 was found to be 13.6 µM in the experiment on A-375; 2360 nM in the experiment on 786-0; 6.47 µM with CWR22R; 16.8 µM with ECa-109 cell line; 24.2 µM with KB; 27.5 µM with MCF7. Moreover, the IC50 in the experiment with BGC-823 stood at 58.3 µM; in the experiment with HT-29 it was 6.42 µM; with SK-OV-3, 15.6 µM; in experiment [1], 15.5 µM.
For the compound `CN1CCN(Cc2cc3c4ccccc4n(Cc4ccc(F)cc4)c3c(CN3CCN(C)CC3)n2)CC1`, the IC50 in the experiment on A-375 turned out to be 16.8 µM; in the experiment on 786-0 it was 2680 nM; with CWR22R it was 5.62 µM; in the experiment on ECa-109 cell line it was 9.87 µM; in the experiment on KB, 28.6 µM; in the experiment on MCF7, 36.4 µM. The IC50 was 48.7 µM with BGC-823, 5.98 µM in the experiment on HT-29, 8.72 µM in the experiment on SK-OV-3 and 16.9 µM in [1].
As for `CN1CCN(Cc2cc3c4ccccc4n(Cc4cccc(Cl)c4)c3c(CN3CCN(C)CC3)n2)CC1`, the IC50 in the experiment with A-375 was determined as 12 µM; in the experiment with 786-0, 3210 nM; with CWR22R, 4.93 µM; in the experiment on ECa-109 cell line, 11.3 µM; in the experiment with KB, 15.6 µM; with MCF7, 15.8 µM. Moreover, the IC50 came out at 36.8 µM in the experiment with BGC-823, 5.68 µM in the experiment on HT-29, 4.62 µM in the experiment with SK-OV-3 and 8.01 µM in [1].
For `CN1CCN(Cc2cc3c([nH]c4ccccc43)c(CN3CCN(C)CC3)n2)CC1`, the IC50 was greater than 100 µM in the experiment on A-375; 28400 nM in the experiment on 786-0; greater than 100 µM with CWR22R; greater than 100 µM in the experiment with ECa-109 cell line; greater than 100 µM in the experiment with KB; greater than 100 µM with MCF7. Besides, the IC50 in the experiment on BGC-823 was greater than 100 µM; in the experiment with HT-29, 83.3 µM; in the experiment with SK-OV-3 it was greater than 100 µM; in [1] it was greater than 100 µM.
